We go through 7 compounds from patent US7192924B2, “Corticotropin releasing factor 2 receptor agonists” (priority 2002, dated 2007).

In general, EC50 refers to the concentration that produces a half-maximal response.

Ends that are not written are not given here. Peptide text beside a SMILES is read from it.

Test [1] deals with T1, CRF2R (Homo sapiens, UniProt Q13324).
T1 sequence (Q13324 1-411): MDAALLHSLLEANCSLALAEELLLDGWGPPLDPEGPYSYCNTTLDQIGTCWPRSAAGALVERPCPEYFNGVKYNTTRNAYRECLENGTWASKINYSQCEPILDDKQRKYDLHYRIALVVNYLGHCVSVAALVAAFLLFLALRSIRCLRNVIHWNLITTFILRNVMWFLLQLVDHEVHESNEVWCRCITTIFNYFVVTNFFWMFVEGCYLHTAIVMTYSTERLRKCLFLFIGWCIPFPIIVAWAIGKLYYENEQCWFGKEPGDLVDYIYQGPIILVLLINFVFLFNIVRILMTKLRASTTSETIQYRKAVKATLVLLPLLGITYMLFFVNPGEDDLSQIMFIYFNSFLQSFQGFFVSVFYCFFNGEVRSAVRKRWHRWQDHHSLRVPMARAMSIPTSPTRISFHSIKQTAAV
As to the kind of experiment: CRF2R agonist activity (EC50, Emax), called comparative CRF binding. Type of test: cell-based. The settings on record: read-out: CRF2R EC50. In short, it runs like this:
(§1)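 Single-subtype CRFR cells, peptide vs vehicle, cAMP via CRE-reporter or lysate assay; background from other CRFR type subtracted if present.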

For test [2], the target named is T2, CRF1R (Homo sapiens, UniProt P34998).
T2 sequence (P34998 24-415): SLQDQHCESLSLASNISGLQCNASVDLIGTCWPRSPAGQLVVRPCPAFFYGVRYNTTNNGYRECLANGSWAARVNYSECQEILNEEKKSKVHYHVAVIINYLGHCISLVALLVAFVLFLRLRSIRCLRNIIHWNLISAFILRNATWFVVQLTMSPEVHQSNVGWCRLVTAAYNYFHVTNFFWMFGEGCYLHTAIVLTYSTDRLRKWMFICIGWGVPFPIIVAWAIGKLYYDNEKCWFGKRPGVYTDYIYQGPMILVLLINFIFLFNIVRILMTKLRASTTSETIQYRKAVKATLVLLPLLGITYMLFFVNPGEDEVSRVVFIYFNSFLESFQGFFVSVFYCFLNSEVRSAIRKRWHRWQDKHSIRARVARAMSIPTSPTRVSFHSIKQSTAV
As to the kind of experiment: CRF1R agonist activity (EC50, Emax), called comparative CRF binding. Particulars: read-out: CRF1R EC50. Type of test: cell-based. In short, it runs like this: as §1

Take `CC[C@H](C)[C@H](NC(=O)[C@H](C)NC(=O)[C@H](CC(N)=O)NC(=O)[C@H](CCC(N)=O)NC(=O)[C@H](CCC(=O)O)NC(=O)[C@H](C)NC(=O)[C@H](CCCNC(=N)N)NC(=O)[C@H](CCC(=O)O)NC(=O)[C@H](CCCNC(=N)N)NC(=O)[C@H](CCC(N)=O)NC(=O)[C@H](CO)NC(=O)[C@H](CCC(N)=O)NC(=O)[C@@H](NC(=O)[C@H](CCCNC(=N)N)NC(=O)[C@H](C)NC(=O)[C@H](CC(C)C)NC(=O)[C@H](CCC(=O)O)NC(=O)[C@H](CC(C)C)NC(=O)[C@H](CC(C)C)NC(=O)[C@@H](NC(=O)[C@H](CCCNC(=N)N)NC(=O)[C@H](CC(C)C)NC(=O)[C@H](CC(C)C)NC(=O)[C@@H](NC(=O)[C@H](Cc1ccccc1)NC(=O)[C@@H]1CCCN1C(=O)[C@H](CC(C)C)NC(=O)[C@H](CC(=O)O)NC(=O)[C@@H](NC(=O)[C@H](CO)NC(=O)[C@H](CC(C)C)NC(=O)[C@H](CO)NC(=O)[C@@H]1CCCN1C(=O)[C@H](CC(N)=O)NC(=O)[C@@H](N)CC(=O)O)[C@@H](C)CC)[C@@H](C)CC)[C@@H](C)O)[C@@H](C)O)C(=O)N[C@H](C(=O)N[C@@H](Cc1ccccc1)C(=O)N[C@@H](C)C(=O)N[C@@H](CO)C(=O)N[C@H](C(N)=O)C(C)C)[C@@H](C)CC` [compound 181] (H-DNPSLSIDLPFILLRTLLELARTQSQRERAEQNAIIFASV-NH2; N-terminus assumed): the results for the EC50 in test [1] and in test [2] were 0.00522 µM and 0.154 µM, respectively.

As to “NDDPPISIDLPFFLLRNMIEMARIENEREQAGLNAKYLAEV-NH2 [compound 264]”, the EC50 in test [1] was not below 0.1 µM; in test [2], 0.704 µM.

`CC[C@H](C)[C@H](N)C(=O)N[C@H](C(=O)N[C@@H](CC(C)C)C(=O)N[C@@H](CO)C(=O)N[C@@H](CC(C)C)C(=O)N[C@@H](CC(=O)O)C(=O)N[C@H](C(=O)N1CCC[C@H]1C(=O)N[C@H](C(=O)NCC(=O)N[C@@H](CC(C)C)C(=O)N[C@@H](CC(C)C)C(=O)N[C@@H](CCC(N)=O)C(=O)N[C@H](C(=O)N[C@@H](CC(C)C)C(=O)N[C@@H](CC(C)C)C(=O)N[C@@H](CCC(=O)O)C(=O)N[C@@H](CCC(N)=O)C(=O)N[C@@H](C)C(=O)N[C@@H](CCCNC(=N)N)C(=O)N[C@@H](C)C(=O)N[C@@H](CCC(=O)O)C(=O)N[C@@H](C)C(=O)N[C@@H](C)C(=O)N[C@@H](CCCNC(=N)N)C(=O)N[C@@H](CCC(=O)O)C(=O)N[C@@H](CCC(N)=O)C(=O)N[C@@H](C)C(=O)N[C@H](C(=O)N[C@H](C(=O)N[C@@H](CC(N)=O)C(=O)N[C@@H](C)C(=O)N[C@@H](CCCNC(=N)N)C(=O)N[C@H](C(=O)N[C@@H](CC(C)C)C(=O)N[C@@H](C)C(=O)N[C@@H](CCCNC(=N)N)C(=O)N[C@H](C(N)=O)C(C)C)[C@@H](C)CC)[C@@H](C)O)[C@@H](C)O)[C@@H](C)CC)[C@@H](C)CC)C(C)C)C(C)C` [compound 122] (H-IVLSLDVPIGLLQILLEQARAEAAREQATTNARILARV-NH2; N-terminus assumed): the results for the half-maximal effective concentration (EC50) in test [1] and in test [2] were 0.00331 µM and not below 1 µM, respectively.

With “NDDPPISIDLPLFLLRNMIEMARIENEREQAGLNAKYLAEV-NH2 [compound 257]”, the concentration for a half-maximal effect (EC50) in test [1] is not below 0.1 µM; in test [2], 0.745 µM.

Regarding `CC[C@H](C)[C@H](NC(=O)[C@H](CCC(=O)O)NC(=O)[C@H](C)NC(=O)[C@H](CC(N)=O)NC(=O)[C@H](CCC(N)=O)NC(=O)[C@H](CCC(=O)O)NC(=O)[C@H](C)NC(=O)[C@H](CCCNC(=N)N)NC(=O)[C@H](CCC(=O)O)NC(=O)[C@H](CCCNC(=N)N)NC(=O)[C@H](CCC(N)=O)NC(=O)[C@H](CO)NC(=O)[C@H](CCC(N)=O)NC(=O)[C@@H](NC(=O)[C@H](CCCCN)NC(=O)[C@H](CCC(=O)O)NC(=O)[C@H](CC(C)C)NC(=O)[C@H](CCC(=O)O)NC(=O)[C@H](CC(C)C)NC(=O)[C@H](CC(C)C)NC(=O)[C@@H](NC(=O)[C@H](CCCNC(=N)N)NC(=O)[C@H](CC(C)C)NC(=O)[C@H](CC(C)C)NC(=O)[C@H](CC(C)C)NC(=O)[C@H](CC(C)C)NC(=O)[C@@H]1CCCN1C(=O)[C@H](CC(C)C)NC(=O)[C@H](CC(=O)O)NC(=O)[C@@H](NC(=O)[C@H](CO)NC(=O)[C@H](CC(C)C)NC(=O)[C@H](CO)NC(=O)[C@@H]1CCCN1C(=O)[C@H](CC(N)=O)NC(=O)[C@@H](N)CC(=O)O)[C@@H](C)CC)[C@@H](C)O)[C@@H](C)O)C(=O)N[C@@H](Cc1ccccc1)C(=O)N[C@@H](C)C(=O)N[C@@H](CCC(=O)O)C(=O)N[C@H](C(N)=O)C(C)C` [compound 323] (H-DNPSLSIDLPLLLLRTLLELEKTQSQRERAEQNAEIFAEV-NH2; N-terminus assumed), the EC50 in test [1] is 0.0196 µM; in test [2], not below 1 µM.

Regarding `CC[C@H](C)[C@H](N)C(=O)N[C@H](C(=O)N[C@@H](CC(C)C)C(=O)N[C@@H](CO)C(=O)N[C@@H](CC(C)C)C(=O)N[C@@H](CC(=O)O)C(=O)N[C@H](C(=O)N1CCC[C@H]1C(=O)N[C@H](C(=O)NCC(=O)N[C@@H](CC(C)C)C(=O)N[C@@H](CC(C)C)C(=O)N[C@@H](CCC(N)=O)C(=O)N[C@H](C(=O)N[C@@H](CC(C)C)C(=O)N[C@@H](CC(C)C)C(=O)N[C@@H](CCC(=O)O)C(=O)N[C@@H](CCC(N)=O)C(=O)N[C@@H](CCC(=O)O)C(=O)N[C@@H](CCCNC(=N)N)C(=O)N[C@@H](CCC(N)=O)C(=O)N[C@@H](CCCNC(=N)N)C(=O)N[C@@H](C)C(=O)N[C@@H](C)C(=O)N[C@@H](CCCNC(=N)N)C(=O)N[C@@H](CCC(=O)O)C(=O)N[C@@H](CCC(N)=O)C(=O)N[C@@H](C)C(=O)N[C@H](C(=O)N[C@H](C(=O)N[C@@H](CC(N)=O)C(=O)N[C@@H](C)C(=O)N[C@@H](CCCNC(=N)N)C(=O)N[C@H](C(=O)N[C@@H](CC(C)C)C(=O)N[C@@H](C)C(=O)N[C@@H](CCCNC(=N)N)C(=O)N[C@H](C(N)=O)C(C)C)[C@@H](C)CC)[C@@H](C)O)[C@@H](C)O)[C@@H](C)CC)[C@@H](C)CC)C(C)C)C(C)C` [compound 111] (H-IVLSLDVPIGLLQILLEQERQRAAREQATTNARILARV-NH2; N-terminus assumed), the 50% effective concentration (EC50) in test [1] was 0.011 µM; in test [2] it was more than 0.1 µM.

For `CC[C@H](C)[C@H](NC(=O)[C@H](CCCNC(=N)N)NC(=O)[C@H](C)NC(=O)[C@H](CC(N)=O)NC(=O)[C@H](CCC(N)=O)NC(=O)[C@H](CCC(=O)O)NC(=O)[C@H](C)NC(=O)[C@H](CCCNC(=N)N)NC(=O)[C@H](CCC(=O)O)NC(=O)[C@H](CCCNC(=N)N)NC(=O)[C@H](CCC(N)=O)NC(=O)[C@H](CO)NC(=O)[C@H](CCC(N)=O)NC(=O)[C@@H](NC(=O)[C@H](CCCCN)NC(=O)[C@H](CCC(=O)O)NC(=O)[C@H](CC(C)C)NC(=O)[C@H](CCC(=O)O)NC(=O)[C@H](CC(C)C)NC(=O)[C@H](CC(C)C)NC(=O)[C@@H](NC(=O)[C@H](CCCNC(=N)N)NC(=O)[C@H](CC(C)C)NC(=O)[C@H](CC(C)C)NC(=O)[C@H](CC(C)C)NC(=O)[C@H](CC(C)C)NC(=O)[C@@H]1CCCN1C(=O)[C@H](CC(C)C)NC(=O)[C@H](CC(=O)O)NC(=O)[C@@H](NC(=O)[C@H](CO)NC(=O)[C@H](CC(C)C)NC(=O)[C@H](CO)NC(=O)[C@@H]1CCCN1C(=O)[C@H](CC(N)=O)NC(=O)[C@@H](N)CC(=O)O)[C@@H](C)CC)[C@@H](C)O)[C@@H](C)O)C(=O)N[C@@H](Cc1ccccc1)C(=O)N[C@@H](CC(=O)O)C(=O)N[C@@H](CCCNC(=N)N)C(=O)N[C@H](C(N)=O)C(C)C` [compound 338] (H-DNPSLSIDLPLLLLRTLLELEKTQSQRERAEQNARIFDRV-NH2; N-terminus assumed), the EC50 in test [1] was 0.0193 µM; in test [2], not below 1 µM.
